Assay results taken from patent US20260069578A1, “TREATMENT OF NEUTROPHILIC DERMATOSES” (UNION THERAPEUTICS A/S, priority 2022, published 2026).
Converted amounts (≈) assume the structure as drawn.

What was measured:
[1] = biological target: purified human recombinant PDE4D protein (Homo sapiens, UniProt Q08499); experiment: PDE4D scintillation proximity assay (SPA); assay type: biochemical
Method: PDE4 enzymatic activity was measured in a scintillation proximity assay using purified human recombinant PDE4D protein.

[2] = biological target: PDE4A4 (Homo sapiens, UniProt P27815); assay type: biochemical
Chain of PDE4A4 (P27815 whole entry): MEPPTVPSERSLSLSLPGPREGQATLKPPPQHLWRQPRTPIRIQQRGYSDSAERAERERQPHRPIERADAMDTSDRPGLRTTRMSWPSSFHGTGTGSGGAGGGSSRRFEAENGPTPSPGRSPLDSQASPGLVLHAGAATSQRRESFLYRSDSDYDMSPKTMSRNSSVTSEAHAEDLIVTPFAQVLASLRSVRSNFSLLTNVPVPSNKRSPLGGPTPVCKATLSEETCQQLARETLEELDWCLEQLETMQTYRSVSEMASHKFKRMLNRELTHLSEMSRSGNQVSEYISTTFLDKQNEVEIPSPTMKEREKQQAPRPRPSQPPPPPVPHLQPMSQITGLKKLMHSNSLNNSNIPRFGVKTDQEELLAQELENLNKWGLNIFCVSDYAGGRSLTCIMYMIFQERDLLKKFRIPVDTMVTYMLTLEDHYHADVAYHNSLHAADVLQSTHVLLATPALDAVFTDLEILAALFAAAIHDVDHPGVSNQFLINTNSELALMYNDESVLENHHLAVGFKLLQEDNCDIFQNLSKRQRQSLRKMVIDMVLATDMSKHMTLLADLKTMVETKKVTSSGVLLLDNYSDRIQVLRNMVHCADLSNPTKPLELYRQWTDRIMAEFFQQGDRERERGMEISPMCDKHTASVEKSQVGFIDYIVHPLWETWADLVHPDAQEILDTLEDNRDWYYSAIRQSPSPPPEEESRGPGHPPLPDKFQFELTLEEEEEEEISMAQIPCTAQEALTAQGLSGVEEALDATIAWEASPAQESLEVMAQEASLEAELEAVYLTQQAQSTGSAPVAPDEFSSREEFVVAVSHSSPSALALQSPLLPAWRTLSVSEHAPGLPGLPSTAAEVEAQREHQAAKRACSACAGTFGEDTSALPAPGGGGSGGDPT

[3] = biological target: PDE4A10 (Homo sapiens, UniProt P27815); assay type: biochemical
Chain of PDE4A10 (P27815 1-825 isoform P27815-6): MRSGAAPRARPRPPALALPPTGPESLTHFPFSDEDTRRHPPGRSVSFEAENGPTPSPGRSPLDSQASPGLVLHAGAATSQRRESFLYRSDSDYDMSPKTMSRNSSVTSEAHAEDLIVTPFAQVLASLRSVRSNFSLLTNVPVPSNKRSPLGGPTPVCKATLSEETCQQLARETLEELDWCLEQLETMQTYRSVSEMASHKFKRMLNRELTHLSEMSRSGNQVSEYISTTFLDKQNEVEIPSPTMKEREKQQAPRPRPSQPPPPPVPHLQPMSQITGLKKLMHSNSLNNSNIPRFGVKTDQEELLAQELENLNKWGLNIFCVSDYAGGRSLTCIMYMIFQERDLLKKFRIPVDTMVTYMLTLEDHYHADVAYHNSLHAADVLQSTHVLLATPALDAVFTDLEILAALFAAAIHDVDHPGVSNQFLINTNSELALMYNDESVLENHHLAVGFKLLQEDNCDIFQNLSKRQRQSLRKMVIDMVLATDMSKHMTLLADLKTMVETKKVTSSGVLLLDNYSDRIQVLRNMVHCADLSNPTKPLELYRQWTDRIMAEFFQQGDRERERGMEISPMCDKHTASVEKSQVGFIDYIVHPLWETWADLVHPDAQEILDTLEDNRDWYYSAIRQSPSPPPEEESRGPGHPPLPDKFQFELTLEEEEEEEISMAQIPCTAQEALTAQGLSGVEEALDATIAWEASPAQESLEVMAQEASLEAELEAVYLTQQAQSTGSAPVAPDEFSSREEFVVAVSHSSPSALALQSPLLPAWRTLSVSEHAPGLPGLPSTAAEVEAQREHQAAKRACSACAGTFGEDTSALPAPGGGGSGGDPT

[4] = biological target: PDE4B1 (Homo sapiens, UniProt Q07343); assay type: biochemical
Method: (§1) Enzyme Preparations: Partially purified human recombinant phosphodiesterases (PDEs) were obtained by cloning cDNA and expressing in S. frugiperda insect cells using a baculovirus expression system. Cells are harvested from culture by centrifuging at 400×g for 5 minutes. Cell pellet is resuspended in 20 ml of RIPA Buffer (150 mM NaCl, 10 mM Tris, 0.1% NP-40, pH8.3), 4 ml/200 ml of culture, plus protease inhibitors (100 μl/10 ml) and incubated on ice for 10-20 minutes then spun at 3500×g for 10 minutes at 4° C. Supernatant is kept and the pellet thrown away.
(§2) Tritium-labelled cyclic AMP is hydrolysed to 5′-AMP o by PDE. The 5′-AMP is then further hydrolysed to adenosine by nucleotidase in snake venom. An anion-exchange resin binds all charged nucleotides and leaves [^3H]adenosine as the only labelled compound to be counted by liquid scintillation.
(§3) 50 μl of diluted PDE enzyme was incubated with 50 μl of [^3H]-cAMP (specific activity 25 Ci/mmol) and 11 μl of 50% DMSO (or compound dilution) for 20 minutes at 30° C. The enzyme was diluted in 20 mM Tris HCl pH7.4 (×2.2 final concentration) and [3H]-cAMP was diluted in 10 mM MgCl2, 40 mM Tris HCl pH 7.4 (×2.2 final concentration). Reactions were carried out in Greiner 96 deep well 1 ml master-block. The plates were centrifuged for 9 seconds before the 20 minutes incubation. […] After incubation 200 μl Dowex resin (1×8, 200-400 mesh) was added and the plate shaken for 20 minutes then centrifuged for 3 minutes at 1000×g. 5 μl of supernatant was removed and added to 200 μl of MicroScint-20 in white plates (Greiner 96 well Optiplate) and shaken for 30 minutes before reading on Perkin Elmer TopCount Scintillation Counter. […] values were calculated using GraphPad Prism software (version 8).

[5] = biological target: PDE4B2 (Homo sapiens, UniProt Q07343); assay type: biochemical
Chain of PDE4B2 (Q07343 1-564 isoform Q07343-2): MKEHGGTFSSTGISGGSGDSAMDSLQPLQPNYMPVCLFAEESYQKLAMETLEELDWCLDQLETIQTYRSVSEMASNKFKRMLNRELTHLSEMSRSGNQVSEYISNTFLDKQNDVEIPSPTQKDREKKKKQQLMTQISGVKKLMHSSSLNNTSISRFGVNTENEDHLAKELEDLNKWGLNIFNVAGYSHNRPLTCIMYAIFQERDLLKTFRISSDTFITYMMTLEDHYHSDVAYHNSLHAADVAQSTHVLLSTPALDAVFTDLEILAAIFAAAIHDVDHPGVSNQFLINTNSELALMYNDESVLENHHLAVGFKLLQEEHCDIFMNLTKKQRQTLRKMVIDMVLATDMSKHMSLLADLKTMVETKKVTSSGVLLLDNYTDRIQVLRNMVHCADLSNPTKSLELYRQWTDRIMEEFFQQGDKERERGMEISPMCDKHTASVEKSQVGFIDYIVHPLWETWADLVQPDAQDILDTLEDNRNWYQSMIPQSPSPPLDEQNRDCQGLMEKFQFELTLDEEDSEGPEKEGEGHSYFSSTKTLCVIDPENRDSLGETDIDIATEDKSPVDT
Method: as §1, §2, §3

[6] = biological target: PDE4B3 (Homo sapiens, UniProt Q07343); assay type: biochemical
Method: as §1, §2, §3

[7] = biological target: PDE4D1 (Homo sapiens, UniProt Q08499); assay type: biochemical
Chain of PDE4D1 (Q08499 1-584 isoform Q08499-4): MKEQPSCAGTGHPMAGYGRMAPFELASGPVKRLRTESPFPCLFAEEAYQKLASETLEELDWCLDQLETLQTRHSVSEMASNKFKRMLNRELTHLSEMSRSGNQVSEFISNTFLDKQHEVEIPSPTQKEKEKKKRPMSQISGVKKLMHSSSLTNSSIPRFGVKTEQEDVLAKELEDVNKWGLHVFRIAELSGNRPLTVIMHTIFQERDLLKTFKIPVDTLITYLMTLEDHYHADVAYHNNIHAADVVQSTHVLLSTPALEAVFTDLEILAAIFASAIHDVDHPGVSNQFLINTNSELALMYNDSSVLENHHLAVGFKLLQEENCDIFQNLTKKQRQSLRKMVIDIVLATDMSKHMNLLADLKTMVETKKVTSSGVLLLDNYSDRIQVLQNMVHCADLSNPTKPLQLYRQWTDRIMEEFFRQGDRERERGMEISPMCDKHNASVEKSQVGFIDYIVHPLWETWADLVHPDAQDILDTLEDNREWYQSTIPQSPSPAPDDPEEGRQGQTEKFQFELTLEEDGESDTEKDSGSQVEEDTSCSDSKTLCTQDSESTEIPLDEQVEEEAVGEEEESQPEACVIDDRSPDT
Method: as §1, §2, §3

[8] = biological target: PDE4D2 (Homo sapiens, UniProt Q08499); assay type: biochemical; conditions: value generated by extrapolation of data
Chain of PDE4D2 (Q08499 303-809): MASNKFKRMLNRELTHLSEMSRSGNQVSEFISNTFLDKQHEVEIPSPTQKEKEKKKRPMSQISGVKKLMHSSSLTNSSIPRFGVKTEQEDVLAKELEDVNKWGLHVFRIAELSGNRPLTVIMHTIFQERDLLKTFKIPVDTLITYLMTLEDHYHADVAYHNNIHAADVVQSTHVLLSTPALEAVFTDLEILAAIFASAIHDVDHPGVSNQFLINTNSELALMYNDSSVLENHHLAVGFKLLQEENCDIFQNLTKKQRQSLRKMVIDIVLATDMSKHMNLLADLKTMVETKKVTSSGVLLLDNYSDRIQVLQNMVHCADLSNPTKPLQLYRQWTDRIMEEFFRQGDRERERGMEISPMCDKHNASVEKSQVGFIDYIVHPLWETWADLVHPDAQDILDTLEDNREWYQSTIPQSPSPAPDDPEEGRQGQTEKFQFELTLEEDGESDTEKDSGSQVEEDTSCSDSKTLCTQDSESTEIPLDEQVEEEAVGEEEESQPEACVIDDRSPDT
Method: as §1, §2, §3

[9] = biological target: PDE4D3 (Homo sapiens, UniProt Q08499); assay type: biochemical; conditions: value generated by extrapolation of data
Chain of PDE4D3 (Q08499 1-673 isoform Q08499-2): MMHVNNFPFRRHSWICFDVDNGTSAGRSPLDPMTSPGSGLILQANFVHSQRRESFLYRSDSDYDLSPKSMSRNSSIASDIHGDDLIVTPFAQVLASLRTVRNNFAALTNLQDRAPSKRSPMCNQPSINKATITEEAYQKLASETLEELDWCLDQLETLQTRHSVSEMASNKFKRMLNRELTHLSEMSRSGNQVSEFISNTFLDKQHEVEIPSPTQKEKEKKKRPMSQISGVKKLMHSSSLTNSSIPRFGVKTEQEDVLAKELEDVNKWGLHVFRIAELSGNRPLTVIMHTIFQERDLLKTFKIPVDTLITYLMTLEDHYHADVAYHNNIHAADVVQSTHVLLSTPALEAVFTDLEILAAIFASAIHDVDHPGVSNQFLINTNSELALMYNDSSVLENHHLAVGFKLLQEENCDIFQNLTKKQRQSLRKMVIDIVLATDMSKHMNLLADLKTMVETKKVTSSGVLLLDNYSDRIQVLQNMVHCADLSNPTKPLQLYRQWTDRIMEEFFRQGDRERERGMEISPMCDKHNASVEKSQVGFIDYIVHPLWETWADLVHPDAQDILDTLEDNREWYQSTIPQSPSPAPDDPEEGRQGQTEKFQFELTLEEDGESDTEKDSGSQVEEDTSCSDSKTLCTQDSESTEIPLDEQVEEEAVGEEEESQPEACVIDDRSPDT
Method: as §1, §2, §3

[10] = biological target: PDE4D5 (Homo sapiens, UniProt Q08499); assay type: biochemical
Method: as §1, §2, §3

[11] = biological target: PDE4D7 (Homo sapiens, UniProt Q08499); assay type: biochemical
Chain of PDE4D7 (Q08499 1-748 isoform Q08499-11): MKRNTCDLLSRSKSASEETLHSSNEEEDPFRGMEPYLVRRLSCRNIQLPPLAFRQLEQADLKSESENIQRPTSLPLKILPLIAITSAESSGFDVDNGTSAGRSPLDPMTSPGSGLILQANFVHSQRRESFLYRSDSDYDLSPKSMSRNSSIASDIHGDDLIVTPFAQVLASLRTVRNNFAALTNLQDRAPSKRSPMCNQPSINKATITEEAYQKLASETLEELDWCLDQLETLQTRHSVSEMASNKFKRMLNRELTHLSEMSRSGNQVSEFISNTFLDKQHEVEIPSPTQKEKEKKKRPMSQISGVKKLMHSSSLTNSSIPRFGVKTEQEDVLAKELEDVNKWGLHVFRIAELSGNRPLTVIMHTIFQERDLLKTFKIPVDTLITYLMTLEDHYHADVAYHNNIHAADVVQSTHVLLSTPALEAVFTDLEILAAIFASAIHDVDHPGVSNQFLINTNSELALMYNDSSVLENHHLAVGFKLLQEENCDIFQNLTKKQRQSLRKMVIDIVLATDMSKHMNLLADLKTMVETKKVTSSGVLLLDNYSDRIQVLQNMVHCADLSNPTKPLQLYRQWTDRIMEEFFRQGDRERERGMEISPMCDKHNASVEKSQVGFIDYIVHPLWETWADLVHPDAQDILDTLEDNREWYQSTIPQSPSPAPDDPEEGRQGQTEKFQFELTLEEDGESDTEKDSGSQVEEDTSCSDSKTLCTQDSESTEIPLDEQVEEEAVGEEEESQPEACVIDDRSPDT
Method: as §1, §2, §3

[12] = system: pyoderma gangrenosum with concomitant HS / PASH syndrome; experiment: Clinical study in two patients; assay type: in vivo, human
Method: The efficacy of the peroral anti-inflammatory PDE4-inhibitor Orismilast was investigated in two patients, one with pyoderma gangrenosum and concomitant HS, the other with PASH syndrome. Patients received a titrated dose of Orismilast of up to 40 mg twice daily for 16 weeks.

[13] = biological target: PDE4A1 (Homo sapiens, UniProt P27815)
[14] = system: conscious, unrestrained ferret; experiment: Emesis study in ferrets; conditions: oral, 1, 3, 10 and 30 mg/kg
[15] = system: LPS-induced TNF-α; experiment: LPS-induced TNF-α in ferrets after single oral administration; conditions: LPS 3 mg/kg ip
[16] = system: resistant vegetative PG; conditions: one case, concomitantly with oral prednisone; cited from earlier work
[17] = system: TNF-α secretion from human whole blood; experiment: Whole blood TNF-α secretion assay (LPS or SEB stimulated); assay type: cell-based; conditions: 24 h, SEB 1 μg/mL, donor 2
[18] = Case 1, PASH syndrome, 20 mg twice daily
[19] = Case 2, PG and HS, 30 plus 40 mg daily

O=C(Cc1c(Cl)c[n+]([O-])cc1Cl)c1ccc(OC(F)F)c2c1OC1(CCS(=O)(=O)CC1)O2 [Compound (I), 2-(3,5-Dichloro-1-oxido-pyridine-4-yl)-1-(7-difluoro-methoxy-2′,3′,5′,6′-tetrahydro-spiro[1,3-benzodioxole-2, 4′-(4H)-thiopyran-1′,1′-dioxide]-4-yl)ethanone]
EC50 values, PDE4D SPA [1]: 7.5 ng/mL (≈ 0.0147 µM) | IC50 [2]: 11.3 nM | IC50 [3]: 52.3 nM | IC50 [4]: 15.7 nM | IC50 [5]: 5.6 nM | IC50 [6]: 2.94 nM | IC50 [7]: 8.67 nM | IC50 [8]: 2.03 nM | IC50 [9]: 1.75 nM | IC50 [10]: 2.18 nM | IC50 [11]: 2.94 nM | HS lesions [12, 18]: gradually improved | pyoderma wounds [12, 18]: slowly recovered | HS lesions [12, 19]: remained calm | pyoderma wounds [12, 19]: completely healed | IC50 [13]: 16.4 nM | Health status or body weight gain [14]: not to influence | Increase of TNF-α levels observed at 1 hour after LPS ([15]; oral, 1, 3 and 10 mg/kg): attenuated

O=C(Nc1c(Cl)cncc1Cl)c1ccc(OC(F)F)c(OCC2CC2)c1 [Roflumilast, reference compound]
Health status or body weight gain [14]: did not influence | Increase of TNF-α levels observed at 1 hour after LPS ([15]; oral, 1 and 3 mg/kg): attenuated

CCOc1cc([C@@H](CS(C)(=O)=O)N2C(=O)c3cccc(NC(C)=O)c3C2=O)ccc1OC [Apremilast]
Lesion healing [16]: Complete healing of one lesion and partial healing of another

C[C@@H]1CCN(C(=O)CC#N)C[C@@H]1N(C)c1ncnc2[nH]ccc12 [Tofacitinib]
Emax [17]: 100%
